Experimental data: patent US20250154180A1, “CRK-LIKE (CRKL) ADAPTOR PROTEIN INHIBITORS AND METHODS OF MAKING AND USING THE SAME” (Rutgers, The State University of New Jersey, priority 2022, published 2025)

Tests used:
CrkL = CrkL (Homo sapiens, UniProt P46109); assay type: biochemical
Text: Single-molecule Fluorescence Resonance Energy Transfer (smFRET)—Single-molecule Fluorescence Resonance Energy Transfer (smFRET) was applied to monitor conformations of single molecules. CrkL has two cysteines (a relatively rare amino acid), one in its SH2 and another in SH3C domains. CrkL was mixed with a mixture of equal amounts of Alexa555-maleimide and Alexa647-maleimide (Invitrogen, USA) (10× over protein concentration) to randomly label the two cysteines. The labeled protein was purified from an unreacted dye by gel filtration. Molecules with exactly one donor and acceptor are identified in single-molecule data analysis and used for further analysis. […] The FRET change between non-phosphorylated CrkL and phosphorylated CrkL was measured. The dye-labeled protein was used in in vitro kinase assays with different drugs treatments as described above. smFRET measurements were performed with a prism-type total internal refection microscope (TIRF) where FRET efficiency is calculated from measured donor and acceptor intensities (Id and Ia, respectively) by FRET=Ia/(Id+Ia), as described previously. To surface immobilize 6×His tagged CrkL, the protein was added to the biotinylated 6×His antibody (Thermo Scientific Cat #: MA1-80087) bound to streptavidin, which was adsorbed to a quartz slide. A lipid bilayer was used to passivate the quartz surface. Phosphorylation was performed on the immobilized Crk in situ.
In intramolecular smFRET, non-radiative energy transfer occurs when two fluorophores attached to different parts of one molecule move close together. […] A cysteine-maleimide-based chemistry was used to label both CrkL and mutant (non-phosphorylatable) CrkL-Y207F. CrkL has a cysteine (a relatively rare amino acid) in its SH2 (labeled with AlexaFluor555) and SH3C (labeled with AlexaFluor647). […] Western Blot (WB) and immunoprecipitation (IP) was used to verify that labeled proteins retain the same gross functional properties as wild-type CrkL (e.g., are phosphorylatable and capable of binding SH2 and SH3 ligands). Briefly, site-specific labeled CrkL was mixed with Ab1 in the presence of Mg^2+ and ATP. A single AlphaScreen-identified candidate inhibitor was then added per assay.

PBMCs = experiment: MTT assay, PBMCs from healthy donors; assay type: cell-based, human
Method: Peripheral blood mononuclear cells (PBMCs, line with the symbol □) were used to determine the specificities of the cytotoxic effects of Pomiferin. The survival curve of PBMC-average is from four different healthy donors. […]
(§1) MTT assay—The MTT assay was used to detect cell proliferation. Briefly, cells were plated in a 96-well plate at a density of 50,000 cells/well in 200 μl of culture medium with candidate drugs to be tested (DMSO as a negative control). The treated cells were incubated for four hours a 37° C. with a 5% CO2 incubator to allow dark crystals to form at the bottom of the wells. […] After aspirating the culture medium from each well, 100 μl of crystal dissolving solution was added to each well and incubated for 10 minutes at RT. The signal was quantified by measuring the absorbance in each sample at 570 nm using a microplate reader.

[1] = tested on: breast cancer cells (MCF7, MDA-MB-453, MDA-MB-231, MDA-MB-231-GFP-LUC, Hs578t, MDA-MB-468); experiment: MTT assay, breast cancer cell lines (TNBC and non-TNBC); assay type: cell-based; details: 72 h, three days after treatment
Method: Peripheral blood mononuclear cells (PBMCs, line with the symbol □) were used to determine the specificities of the cytotoxic effects of Pomiferin. The survival curve of PBMC-average is from four different healthy donors. Cells (1×10^3−3×10^3) were plated in 96-well plates, and cell growth was determined by MTT assay three days after cells were treated with Pomiferin at the indicated doses.
MTT assay—The MTT assay was used to detect cell proliferation. Briefly, cells were plated in a 96-well plate at a density of 50,000 cells/well in 200 μl of culture medium with candidate drugs to be tested (DMSO as a negative control). The treated cells were incubated for four hours a 37° C. with a 5% CO2 incubator to allow dark crystals to form at the bottom of the wells. After culturing for 48 hours, […] of MTT reagent was added to each well and mixed gently for one minute. After aspirating the culture medium from each well, 100 μl of crystal dissolving solution was added to each well and incubated for 10 minutes at RT. The signal was quantified by measuring the absorbance in each sample at 570 nm using a microplate reader.

MDA-231-GFP-LUC cells = experiment: MTT assay, MDA-231-GFP-LUC; assay type: cell-based; details: five M Pomiferin for three days
Method: as §1
To further test the inhibitory specificity of Pomiferin for specific breast cancer cell lines, The survival percentage was compared between different hematopoietic cancer cell lines and healthy PBMCs.

Sk-Hep1 tumor = experiment: HCC Sk-Hep1 xenograft model; assay type: in vivo, NSG mice
Text: To further test whether the tumor growth inhibition effect of NC5 applied to other solid tumors, the HCC-Sk-Hep1cell line and PDAC-BXPC3 cell line xenograft models were used. Subcutaneous injection of 1.5×10^6 SK-Hep1 or BXPC3 cells in NSG mice, Six-ten days after tumor cell injection, the palpable tumor in NSG mice was confirmed.
To test the effects of the disclosed compounds on the xenograft mouse models, the HCC-Sk-Hep1 cell line xenograft model in NSG mice and 4T1-Luc orthotopic syngeneic breast tumor model in Balb/c mice was used. After confirming the palpable tumor in NSG or Balb/c mice. […] Compound III is referred to as “NC5-140-1” and Compound I is referred to as “NC5-140-2” in FIGS. 11A-11C.

[2] = tested on: pCrkL in MDA-MB-231-LUC cells; experiment: Flow cytometry of intracellular pCrkL/CrkL, MDA-MB-231-LUC; assay type: cell-based; details: three M Pomiferin for six days
Text: The cells were labeled with total CrkL or phosphor-CrkL by Alexa Fluor 647 (AF-647) and stained with secondary antibodies conjugated with AF-647 as staining control. […] The star symbol indicates the significance of vehicle vs. Pomiferin of the indicated concentration. *p<0.05, **p<0.005, ***p<0.0005. Data represent mean±SEM, n=4.
The intracellular pCrkL level from breast cancer cell lines between Pomiferin-treated and vehicle control groups was examined.

[3] = tested on: PBNK cells killing activity towards SK-Hep1; experiment: Cr51 release assay, PBNK killing of SK-Hep1; assay type: cell-based; details: 1 uM overnight
Method: PBNK cells were incubated with 1 uM NC5 or Compound III overnight, then cells were harvested for Cr51 release assay to check cell cytotoxicity. […] The star symbol indicates the significance of vehicle control vs. NC5 of the indicated E:T ratios. *p<0.05, **p<0.01, n=3.

Chain of CrkL (P46109 whole entry, the tested form may be a part): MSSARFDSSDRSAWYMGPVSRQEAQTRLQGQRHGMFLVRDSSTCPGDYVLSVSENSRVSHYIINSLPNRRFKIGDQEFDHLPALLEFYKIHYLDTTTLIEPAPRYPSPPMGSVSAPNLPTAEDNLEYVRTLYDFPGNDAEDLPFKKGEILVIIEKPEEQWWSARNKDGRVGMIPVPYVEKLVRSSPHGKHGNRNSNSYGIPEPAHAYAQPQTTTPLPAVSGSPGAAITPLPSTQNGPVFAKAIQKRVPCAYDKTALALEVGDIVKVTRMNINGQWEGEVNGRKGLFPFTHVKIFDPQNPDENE

What does the source list for `CC(C)=CCc1c2c(c3occ(-c4ccc(O)c(O)c4)c(=O)c3c1O)C=CC(C)(C)O2` [Pomiferin, 3′,4′,5-Trihydroxy-6″,6″-dimethyl-6-(3-methylbut-2-en-1-yl)-6″H-pyrano[2″,3″:7,8]isoflavone]?
inhibition of the higher FRET caused by Ab1 (pCrkL) (CrkL; CrkL + Ab1, Mg2+ and ATP): 55%; FRET signal (CrkL; CrkL about 0.4, CrkL+Ab1 about 0.6): 0.5; cell proliferation (MTT) (PBMCs; 1 uM, 5 uM and 10 uM, 24 hours): no statistical difference; IC50 (PBMCs; Homo sapiens, 72 h, MTT, three days, PBMC average of four healthy donors): > 18 µM; sensitivity to Pomiferin (survival percentage, MTT) (PBMCs; five M Pomiferin for three days, compared with MDA-MD-231-LUC): more resistant to Pomiferin inhibition; IC50 [1]: 1.3 to 3.6 µM; sensitivity to Pomiferin (survival percentage, MTT) (MDA-231-GFP-LUC cells): most sensitive cell to Pomiferin treatment; tumor growth (Sk-Hep1 tumor; Pomiferin administered orally, two-group study): suppressed; tumor growth (Sk-Hep1 tumor; four-group study, 5.0 μg/g oral gavage): inhibit tumor growth; median survival (Sk-Hep1 tumor; four-group study, 5.0 μg/g oral gavage, vehicle 26 days): 34 days; tumor sizes before day 25 of inoculation (Sk-Hep1 tumor; four-group study, administered orally): no significant difference in tumor sizes; median survival, fold longer than vehicle control (Sk-Hep1 tumor; two-group study): 1.54 fold; median survival (Sk-Hep1 tumor; two-group study, 5.0 μg/g oral, vehicle 24 days): 37 days; total CrkL expression [2]: not many differences in total CrkL expression; intracellular pCrkL level ([2]; vs vehicle): reduced the intracellular pCrkL level; PBNK cells killing activity (Cr51 release) [3]: increased PBNK cells killing activity
